The target of test [1] is T1, Human V2 Vasopressin Receptor (Homo sapiens, UniProt P30518).
T1 construct: expressed in transfected cells; host or cells: mouse fibroblast cell line LV-2
The experiment in a line: Binding to Membranes of Mouse Fibroblast Cell Line (LV-2) Transfected with the cDNA Expressing the Human V2 Vasopressin Receptor. To be noted: human V2; for IC50: LV-2 cell membranes, read-out: V2 IC50 (**). On the procedure:
Binding to Membranes of Mouse Fibroblast Cell Line (LV-2) Transfected with the cDNA Expressing the Human V2 Vasopressin Receptor
Flasks of 175 ml capacity, containing attached cells grown to confluence, are cleared of culture medium by aspiration. The flasks containing the attached cells are rinsed with 2×5 ml of phosphate buffered saline (PBS) and the liquid aspirated off each time. Finally, 5 ml of an enzyme free dissociation Hank's based solution (Specialty Media, Inc., Lafayette, N.J.) is added and the flasks are left undisturbed for 2 min. The content of all flasks is. poured into a centrifuge tube and the cells pelleted at 300× g for 15 min. The Hank's based solution is aspirated off and the cells homogenized with a polytron at setting #6 for 10 sec in 10.0 mM Tris.HCl buffer, pH 7.4 containing 0.25M sucrose and 1.0 mM EDTA. The homogenate is centrifuged at 1500× g for 10 min to remove ghost membranes. The supernatant fluid is centrifuged at 100,000× g for 60 min. to pellet the receptor protein. Upon completion, the pellet is resuspended in a small volume of 50.0 mM Tris. HCl buffer, pH 7.4. The protein content is determined by the Lowry method and the receptor membranes are suspended in 50.0 mM Tris.HCl buffer containing 0.1 mM phenylmethylsulfonylfluoride (PMSF) and 0.2% bovine serum albumin (BSA) to give 2.5 mg receptor protein per ml of suspension.
Arginine^8, vasopressin (S.A. 75.0 Ci/mmole) at 0.8 nM and the reaction initiated by the addition of 80.0 μl of tissue membranes (200.0 μg tissue protein). The plates are left undisturbed on the bench top for 120 min to reach equilibrium. Non specific binding is assessed in the presence of 1.0 μM of unlabeled ligand, added in 20 μl volume. For test compounds, these are solubilized in 50% dimethylsulfoxide (DMSO) and added in 20.0 μl volume to a final incubation volume of 200 μl. Upon completion of binding, the content of each well is filtered off, using a Brandel® cell Harvester (Gaithersburg, Md.). The radioactivity trapped on the filter disk by the ligand-receptor complex is assessed by liquid scintillation counting in a Packard LS Counter, with an efficiency of 65% for tritium. The data are analyzed for IC50 values by the LUNDON-2 program for competition (LUNDON SOFTWARE, Ohio).

Test [2] concerns the target T2, V1 Receptor Subtype in Human Platelet (Homo sapiens, UniProt P37288).
T2 construct: tissue Hudson Valley Blood Services, Westchester Medical Center, Valhalla, N.Y; host or cells: human platelets (frozen platelet rich plasma)
Kind of test: Binding to Vasopressin V1 receptor subtype in Human Platelet Membranes. The following applies: for IC50: human platelet membranes; for inhibition at 1 µM: 1.5 h, human platelet. How it is done: Radioligand Binding Experiments with Human Platelet Membranes (a) Platelet Membrane Preparation: Frozen platelet rich plasma (PRP), (Platelet Source: Hudson Valley Blood Services, Westchester Medical Center, Valhalla, N.Y.) are thawed to room temperature. The tubes containing the PRP are centrifuged at 16,000×g for 10 min. at 4° C. and the supernatant fluid discarded. […] The suspension is recentrifuged at 16,000× g for 10 min. This washing step is repeated one more time. The wash discarded and the lysed pellets homogenized in low ionic strength buffer of Tris.HCl, 5.0 mM, pH 7.5 containing 5.0 mM EDTA. The homogenate is centrifuged at 39,000× g for 10 min. The resulting pellet is resuspended in Tris. […] The final pellet is resuspended in 50.0 mM Tris. HCl buffer pH 7.4 containing 120 mM NaCl and 5.0 mM KCl to give 1.0-2.0 mg protein per ml of suspension. […] Platelet Membranes […] Then add 20 μl of [^3 H]Ligand (Manning or […] Vasopressin), to give final concentrations ranging from 0.01 to 10.0 nM. Initiate the binding by adding 80.0 μl of platelet suspension (approx. 100 μg protein). Mix all reagents by pipetting the mixture up and down a few times. Non specific binding is measured in the presence of 1.0 μM of unlabeled ligand (Manning or […] Vasopressin). Let the mixture stand undisturbed at room temperature for ninety (90) min. Upon this time, rapidly filter off the incubate under vacuum suction over GF/B filters, using a Brandel Harvester. Determine the radioactivity caught on the filter disks by the addition of liquid scintillant and counting in a liquid scintillator.

The test system of another test is Vasopressin V2. Kind of test: Vasopressin V2 Antagonist Activity in Conscious Hydrated Rats. To be noted: 10 mg/kg orally, AVP 0.4 μg/kg i.p. In kind it is in vivo, rat. In short, it runs like this:
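Four-hour urine output, osmolality and electrolytes (Na+, K+, Cl−) recorded in water-loaded rats (30 mL/kg deionized water orally) given AVP i.p. at 0.4 μg/kg. Test compounds were given orally at 0.1–100 mg/kg 1 h before AVP; 2–4 rats per compound.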

The structures appear in SMILES notation.

T2 sequence (P37288 whole entry): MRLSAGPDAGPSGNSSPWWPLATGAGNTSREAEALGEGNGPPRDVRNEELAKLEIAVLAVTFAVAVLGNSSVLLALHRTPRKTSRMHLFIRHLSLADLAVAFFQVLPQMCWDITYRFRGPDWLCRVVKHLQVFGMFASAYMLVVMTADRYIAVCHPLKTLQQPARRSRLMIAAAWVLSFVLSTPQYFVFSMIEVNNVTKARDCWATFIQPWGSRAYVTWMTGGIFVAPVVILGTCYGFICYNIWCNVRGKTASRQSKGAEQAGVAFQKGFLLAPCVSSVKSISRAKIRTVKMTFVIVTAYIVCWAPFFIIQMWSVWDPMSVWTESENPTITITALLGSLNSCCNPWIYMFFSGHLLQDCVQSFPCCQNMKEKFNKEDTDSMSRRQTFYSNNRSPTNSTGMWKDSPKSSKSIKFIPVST
T1 sequence (P30518 whole entry): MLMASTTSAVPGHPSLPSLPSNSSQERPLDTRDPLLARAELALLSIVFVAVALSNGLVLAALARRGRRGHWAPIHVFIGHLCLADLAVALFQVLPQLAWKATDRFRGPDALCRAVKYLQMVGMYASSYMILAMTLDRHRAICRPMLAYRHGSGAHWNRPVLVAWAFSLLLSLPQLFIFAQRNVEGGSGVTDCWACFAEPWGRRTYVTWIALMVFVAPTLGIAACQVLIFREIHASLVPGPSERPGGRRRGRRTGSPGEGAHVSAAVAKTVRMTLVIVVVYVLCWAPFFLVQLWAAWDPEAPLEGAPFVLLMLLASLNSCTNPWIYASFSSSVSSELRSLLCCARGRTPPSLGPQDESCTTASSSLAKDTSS

What is called IC50 is the concentration at which inhibition is half-maximal. As to `CC(=O)Oc1ccccc1C(=O)Nc1ccc(C(=O)N2Cc3cccn3Cc3ccccc32)cc1` [Example 688, N-[4-(5H-pyrrolo[2,1-c][1,4]benzodiazepin-10(11H)-ylcarbonyl)phenyl]-2-(acetoxy)benzamide], the half-inhibitory concentration (IC50) was 34 nM in test [1] and 69 nM in test [2].
Turning to `O=C(Nc1ccc(C(=O)N2Cc3cccn3Cc3ccccc32)c(Cl)c1)c1ccc(F)cc1C(F)(F)F` [Example 707, N-[4-(5H-pyrrolo[2,1-c][1,4]benzodiazepin-10(11H)-ylcarbonyl)-3-chlorophenyl]-2-(trifluoromethyl)-4-fluorobenzamide], the IC50 in test [1] was 6 nM; in test [2], 200 nM.
As for `Cc1ccc(F)cc1C(=O)Nc1ccc(C(=O)N2Cc3ccc(CN(C)C)n3Cc3ccccc32)c(Cl)c1` [Example 668, N-[4-[[3-[(dimethylamino)methyl]-5H-pyrrolo[2,1-c][1,4]benzodiazepin-10(11H)-yl]carbonyl]-3-chlorophenyl]-5-fluoro-2-methylbenzamide], the IC50 in test [1] stood at 29 nM. Moreover, in the test with Vasopressin V2, the Osmolality was 378 mOsm/kg and the “Urine Volume” value came to 20.7 ml/4 hrs. In test [2], the IC50 was 170 nM.
With `O=C(Nc1ccc(C(=O)N2Cc3cccn3Cc3ccccc32)cc1)c1ccc(F)cc1C(F)(F)F` [Example 693, N-[4-(5H-pyrrolo[2,1-c][1,4]benzodiazepin-10(11H)-ylcarbonyl)phenyl]-2-(trifluoromethyl)-4-fluorobenzamide], the values for the 50% inhibitory concentration (IC50) in test [1] and in test [2] were 5 nM and 21 nM, respectively.
Consider `O=Cc1cccn1CC(=O)Nc1ccc(C(=O)N2Cc3cccn3Cc3ccccc32)cc1` [Example 685, N-[4-(5H-Pyrrolo[2,1-c][1,4]benzodiazepin-10(11H)-ylcarbonyl)phenyl]-2-(2-formyl-1-pyrrolo)acetamide], for which the IC50 in test [1] and in test [2] was 61 nM throughout.
Turning to `O=C(Nc1ccc(C(=O)N2Cc3cccn3Cc3ccccc32)cc1)c1ccccc1O` [Example 689, N-[4-(5H-pyrrolo[2,1-c][1,4]benzodiazepin-10(11H-)-ylcarbonyl)phenyl]-2-hydroxybenzamide], the IC50 in test [1] turned out to be 540 nM; in test [2], 85 nM.
On to `O=C(Nc1ccc(C(=O)N2Cc3cccn3Cc3ccccc32)c(Cl)c1)c1ccc(C(F)(F)F)cc1F` [Example 696, N-[4-(5H-pyrrolo[2,1-c][1,4]benzodiazepin-10(11H)-ylcarbonyl)-3-chloro-phenyl]-2-fluoro-4-(trifluoromethyl)benzamide], for which the half-maximal inhibitory concentration (IC50) in test [1] is 65 nM; in test [2], 12400 nM.
Regarding `O=C(Nc1ccc(C(=O)N2Cc3cccn3Cc3ccccc32)c(Cl)c1)c1ccccc1F` [Example 523, N-[4-(5H-pyrrolo[2,1-c][1,4]benzodiazepin-10(11H)-ylcarbonyl)-3-chlorophenyl]-2-fluorobenzamide], the IC50 in test [1] stood at 2.8 nM. Besides, in the test on Vasopressin V2, the Osmolality is given as 1218 mOsm/kg and the “Urine Volume” value was 5 ml/4 hrs. In test [2], this compound had an IC50 of 110 nM.
In the case of `COc1cc(NC(=O)c2cc(F)ccc2C)ccc1C(=O)N1Cc2cccn2Cc2ccccc21` [Example 695], the 50% inhibitory concentration (IC50) in test [1] is 1.8 nM; in test [2], 15 nM.
In general, inhibition refers to the share of the control response that was lost under treatment. For `COc1cc(NC(=O)c2ccccc2C)c(Cl)cc1C(=O)N1Cc2cccn2Cc2ccccc21` [Example 703, N-[4-(5H-pyrrolo[2,1-c][1,4]benzodiazepin-10(11H)-ylcarbonyl)-6-chloro-3-methoxyphenyl]-2-methylbenzamide], the inhibition at 1 µM worked out at 87% in test [1] and 35% in test [2].
`Cc1c(F)cccc1C(=O)Nc1ccc(C(=O)N2CCc3cccn3-c3ccccc32)c(Cl)c1` [Example 611, N-[4-[(6,7-Dihydro-5H-pyrrolo[1,2-a]-[1,5]benzodiazepin-5-yl)carbonyl]-3-chlorophenyl]-3-fluoro-2-methyl-benzamide]: the values for the 50% inhibitory concentration (IC50) in test [1] and in test [2] were 4 nM and 500 nM, respectively.
On to `Cc1ccccc1C(=O)Nc1ccc(C(=O)N2Cc3cccn3Cc3ccccc32)c(C)c1` [Example 691, N-[4-(5H-pyrrolo[2,1-c][1,4]benzodiazepin-10(11H)-ylcarbonyl)-3-methylphenyl]-2-methylbenzamide], for which the figures for the IC50 in test [1] and in test [2] were 2.9 nM and 72 nM, respectively.
Take `CSc1ccc(Cl)c(C(=O)Nc2ccc(C(=O)N3Cc4cccn4Cc4ccccc43)c(Cl)c2)c1` [Example 700, N-[4-(5H-pyrrolo[2,1-c][1,4]benzodiazepin-10(11H)-ylcarbonyl)-3-chloro-phenyl]-2-chloro-5-(methylthio)benzamide]: the inhibition at 10 µM in test [1] (10 μM) worked out at 100%. This compound also had an inhibition at 1 µM in test [2] of 77%.
As to `COc1ccc(C(=O)Nc2ccc(C(=O)N3Cc4cccn4Cc4ccccc43)c(Cl)c2)c(Cl)c1OC` [Example 702, N-[4-(5H-pyrrolo[2,1-c][1,4]benzodiazepin-10(11H)-ylcarbonyl)-3-chloro-phenyl]-2-chloro-3,4-dimethoxybenzamide], the figures for the inhibition at 1 µM in test [1] and in test [2] were 85% and 9%, respectively.
For `Cc1ccc(F)cc1C(=O)Nc1ccc(C(=O)N2Cc3ccnn3Cc3ccccc32)c(Cl)c1` [Example 518, N-[4-(4H-Pyrazolo[5,1-c][1,4]benzodiazepin-5(10H)-ylcarbonyl)-3-chlorophenyl]-5-fluoro-2-methylbenzamide], in test [1], the IC50 was found to be 1.7 nM. Also, in the test with Vasopressin V2, the Osmolality is 363 mOsm/kg and the “Urine Volume” value worked out at 17.5 ml/4 hrs. Further, the IC50 in test [2] was 220 nM.
`O=C(Nc1ccc(C(=O)N2Cc3cccn3Cc3ccccc32)c(Cl)c1)c1c(F)cccc1C(F)(F)F` [Example 698, N-[4-(5H-pyrrolo[2,1-c][1,4]benzodiazepin-10(11H)-ylcarbonyl)-3-chloro-phenyl]-2-fluoro-6-(trifluoromethyl)benzamide]: the half-maximal inhibitory concentration (IC50) turned out to be 13 nM in test [1] and 1300 nM in test [2].
The matching figures for `O=C(Nc1ccc(C(=O)N2Cc3cccn3Cc3ccccc32)cc1)c1cccc2ccccc12` [Example 690, N-[4-(5H-pyrrolo[2,1-c][1,4]benzodiazepin-10(11H)-ylcarbonyl)phenyl]-1-naphthylcarboxamide]: 22 nM and 220 nM.

These data come from patent US5624923A, “Tricyclic diazepine vasopressin antagonists and oxytocin antagonists” (priority 1995, dated 1997).
